Test results published in PMC11284788, “NN1213 – A Potent, Long-Acting, and Selective Analog of Human Amylin” (Journal of Medicinal Chemistry, 2024).
≈ marks a conversion by molar mass, not a printed value. Numbered stars: 1 amine (or outer) side, 2 acyl side, 3 side chain; on linkers, the order of the positions; unused ones are H or OH. Bridge positions count the residues as written; N and C are the ends. Side chains are listed from the residue outwards. Peptide text beside a SMILES is read from it. * marks the point of attachment. C20 diacid = O=C(O)CCCCCCCCCCCCCCCCCCC(=O)*; γGlu = O=C(O)[C@H](CCC(=O)[*:2])N[*:1]; AEEA = NCCOCCOCC(=O)O

What was measured:
[1] = Solubility versus pH profile
[2] = target: T1, hAMY3R (Homo sapiens, UniProt O60896+P30988); test: scintillation proximity binding assay, hAMY3R membranes; parameters: expressed in transfected cells; host or cells: BHK tk-ts 13, transient co-transfection; membranes for the SPA, whole cells for the species-specific assays; details: for ratio hCTR/hAMY3R: ratio of binding IC50 values
T1 sequence (P30988 25-474): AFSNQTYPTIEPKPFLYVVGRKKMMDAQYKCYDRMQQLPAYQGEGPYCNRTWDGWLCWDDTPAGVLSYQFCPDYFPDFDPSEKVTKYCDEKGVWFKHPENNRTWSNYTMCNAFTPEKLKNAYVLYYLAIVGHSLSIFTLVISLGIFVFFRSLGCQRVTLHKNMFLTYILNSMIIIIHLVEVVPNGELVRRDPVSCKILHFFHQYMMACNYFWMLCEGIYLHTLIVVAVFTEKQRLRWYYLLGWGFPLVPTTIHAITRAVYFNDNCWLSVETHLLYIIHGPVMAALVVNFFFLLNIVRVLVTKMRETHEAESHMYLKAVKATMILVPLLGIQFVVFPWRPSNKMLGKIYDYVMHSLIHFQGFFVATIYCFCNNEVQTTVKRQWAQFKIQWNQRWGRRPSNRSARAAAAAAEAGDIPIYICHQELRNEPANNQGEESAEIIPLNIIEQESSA
T1 sequence (O60896 24-148 partner): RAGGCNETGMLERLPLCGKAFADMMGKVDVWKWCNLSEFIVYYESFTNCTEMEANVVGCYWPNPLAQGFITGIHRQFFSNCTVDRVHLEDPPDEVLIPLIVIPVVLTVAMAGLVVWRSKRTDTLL
Method: The apparent binding affinities were determined using a scintillation proximity assay with beads from PerkinElmer and cell membranes containing the AMY3R or CTRs. […] Membranes were harvested and membranes were prepared and kept at −80 °C until use. The assay was performed in a 384-well Optiplate (PerkinElmer). Membranes were mixed with scintillation proximity assay beads in a 1:1 ratio. […] Samples were analyzed on a TopCounter (Packard). The IC50 values were calculated using GraphPad Prism. See Supporting Information S7: SAR Screening Assay Methods (Binding Assays (Human and Rat)) for more information.
Binding Assays (Human and Rat). Brief descriptions of the methods used to determine binding affinities for SAR analysis are described below. Curves and IC50 values were plotted and calculated in GraphPad Prism using nonlinear regression (one site binding competition analysis), with pIC50 values […]
values were used to calculate the binding affinity ratios in order to express the selectivity of compounds for the AMY3R versus the CTR.
CTR Binding Assay. The binding assay was performed using scintillation proximity assay (SPA) beads (RPNQ0001) from PerkinElmer and cell membranes containing either the hCTR or rCTR. BHK […]
(§1) Membranes were prepared in the following way: the cells were rinsed with PBS and incubated with Versene for approximately 5 min before harvesting. The cells were flushed with PBS and the cell-suspension was centrifuged for 5 min at 1000 rpm. Cells were homogenized (Ultra Turrax) in a buffer […]
containing 20 mM Na-HEPES and 0.1 mM EDTA (pH 7.4, buffer 2). The resulting pellet was re-suspended in buffer 2 and protein concentration was measured (BCA protein assay, Pierce). The homogenate was kept cold during the whole procedure. The membranes were stored at –80 °C until […]
The binding assay was performed in a 384-well Optiplate (PerkinElmer) in a total volume of 40 μL.
Membranes were mixed with SPA beads in a 1:1 ratio. […]
mg/well. Test compounds were dissolved in DMSO and further diluted in assay buffer (50 mM HEPES, pH 7.4, 1 mM CaCl2, 5 mM MgCl2, 0.1% ovalbumin, and 0.02% Tween-20).
Calcitonin (NEX422 PerkinElmer) was dissolved in assay buffer and added to the Optiplate at a final […]
prior to centrifugation (1500 rpm, 10 min). Samples were analyzed on TopCounter (Packard).
AMY3R Binding Assay. The binding assay was performed using SPA beads (RPNQ0001) from PerkinElmer and cell membranes containing either the hAMY3R or rAMY3R. BHK tk-ts 13 cells were […]
as §1, with “and cultured as described above. Membranes” for “Membranes”, “buffer containing 20 mM Na-HEPES and 10 mM EDTA (pH 7.4), and” for “buffer”
The resulting pellet was re-suspended, homogenized, and
7.4, buffer 2). The resulting pellet was re-suspended in buffer 2 and protein concentration was measured (BCA protein assay, Pierce). The homogenate was kept cold during the whole procedure.
The membranes were stored at –80 °C until use.
Membranes were mixed with SPA beads in a 1:1 ratio. The final concentration of SPA beads was 0.05 mg/well. Test compounds were dissolved in DMSO and further diluted in assay buffer (50 mM […]
rAMY (NEX448 PerkinElmer) was dissolved in assay buffer and added to the Optiplate at a final

[3] = bis-tris-propane buffer, pH 6, aqueous buffer
[4] = bis-tris-propane buffer, pH 6.5, aqueous buffer
[5] = bis-tris-propane buffer, pH 7, aqueous buffer
[6] = bis-tris-propane buffer, pH 7.5, aqueous buffer
[7] = bis-tris-propane buffer, pH 8, aqueous buffer
[8] = lactate buffer, pH 4, aqueous buffer
[9] = lactate buffer, pH 5, aqueous buffer

SMILES	solubility kinetic [1, 3]	solubility kinetic [1, 4]	solubility kinetic [1, 5]	solubility kinetic [1, 6]	solubility kinetic [1, 7]	solubility kinetic [1, 8]	solubility kinetic [1, 9]	ratio hCTR/hAMY3R [2]	hAMY3R pIC50 ([2]; SPA binding assay, Tables S13 and S15)	IC50 ([2]; SPA, BHK cell membranes, 125I-rat amylin, 120 min 25 °C, read-out: hAMY3R IC50)
CC[C@H](C)[C@H](NC(=O)[C@H](C)NC(=O)CNC(=O)[C@H](Cc1ccccc1)NC(=O)[C@H](CC(N)=O)NC(=O)[C@@H]1CCCN1C(=O)[C@H](CO)NC(=O)[C@H](CO)NC(=O)[C@H](Cc1c[nH]cn1)NC(=O)[C@H](CCCNC(=N)N)NC(=O)[C@H](CC(C)C)NC(=O)[C@H](Cc1ccccc1)NC(=O)[C@H](CC(=O)O)NC(=O)[C@H](C)NC(=O)[C@H](CC(C)C)NC(=O)[C@H](CCCNC(=N)N)NC(=O)[C@H](CCC(N)=O)NC(=O)[C@@H](NC(=O)[C@H](C)NC(=O)[C@@H]1CSSC[C@H](NC(=O)[C@@H](N)CCCCNC(=O)CC[C@H](NC(=O)CC[C@H](NC(=O)CCCCCCCCCCCCCCCCCCC(=O)O)C(=O)O)C(=O)O)C(=O)N[C@@H](CC(N)=O)C(=O)N[C@@H]([C@@H](C)O)C(=O)N[C@@H](C)C(=O)N[C@@H]([C@@H](C)O)C(=O)N1)[C@@H](C)O)C(=O)N1CCC[C@H]1C(=O)N[C@@H](CO)C(=O)N[C@@H](CO)C(=O)N[C@H](C(=O)N[C@@H](CC(N)=O)C(=O)N[C@H](C(=O)NCC(=O)N[C@@H](CO)C(=O)N[C@@H](CCCNC(=N)N)C(=O)N[C@H](C(=O)N[C@@H](Cc1ccc(O)cc1)C(N)=O)[C@@H](C)O)C(C)C)[C@@H](C)O [NN1213]	≥ 200 µM	≥ 200 µM	155 µM (≈ 706 µg/mL)	106 µM (≈ 483 µg/mL)	110 µM (≈ 501 µg/mL)	≥ 200 µM	≥ 200 µM	74	–	–
CC(C)C[C@H](NC(=O)[C@H](CCCNC(=N)N)NC(=O)[C@H](CCC(N)=O)NC(=O)[C@@H](NC(=O)[C@H](C)NC(=O)[C@@H]1CSSC[C@H](NC(=O)[C@@H](N)CCCCNC(=O)CC[C@H](NC(=O)CC[C@H](NC(=O)CCCCCCCCCCCCCCCCCCC(=O)O)C(=O)O)C(=O)O)C(=O)N[C@@H](CC(N)=O)C(=O)N[C@@H]([C@@H](C)O)C(=O)N[C@@H](C)C(=O)N[C@@H]([C@@H](C)O)C(=O)N1)[C@@H](C)O)C(=O)N[C@@H](C)C(=O)N[C@@H](CC(=O)O)C(=O)N[C@@H](Cc1ccccc1)C(=O)N[C@@H](CC(C)C)C(=O)N[C@@H](CCCNC(=N)N)C(=O)N[C@@H](Cc1c[nH]cn1)C(=O)N[C@@H](CO)C(=O)N[C@@H](CO)C(=O)N[C@@H](CC(N)=O)C(=O)N1CCC[C@H]1C(=O)N[C@@H](Cc1ccccc1)C(=O)NCC(=O)N[C@@H](C)C(=O)N1CCC[C@H]1C(=O)N[C@@H](CC(C)C)C(=O)N[C@@H](CO)C(=O)N[C@@H](CO)C(=O)N[C@H](C(=O)N[C@@H](CC(N)=O)C(=O)N[C@H](C(=O)NCC(=O)N[C@@H](CO)C(=O)N[C@@H](CC(=O)O)C(=O)N[C@H](C(=O)N[C@@H](Cc1ccc(O)cc1)C(N)=O)[C@@H](C)O)C(C)C)[C@@H](C)O [Peptide 7] (H-K([γGlu-γGlu-C20 diacid])CNTATCATQRLADFLRHSSNPFGAPLSSTNVGSDTY-NH2; disulfide 2-7)	189 µM (≈ 853 µg/mL)	≥ 200 µM	195 µM (≈ 880 µg/mL)	≥ 200 µM	≥ 200 µM	96 µM (≈ 433 µg/mL)	141 µM (≈ 636 µg/mL)	10	8.95	1.12 nM
CC[C@H](C)[C@H](NC(=O)[C@H](C)NC(=O)CNC(=O)[C@H](Cc1ccccc1)NC(=O)[C@H](CC(N)=O)NC(=O)[C@@H]1CCCN1C(=O)[C@H](CO)NC(=O)[C@H](CO)NC(=O)[C@H](Cc1c[nH]cn1)NC(=O)[C@H](CCCNC(=N)N)NC(=O)[C@H](CC(C)C)NC(=O)[C@H](Cc1ccccc1)NC(=O)[C@H](CC(N)=O)NC(=O)[C@H](C)NC(=O)[C@H](CC(C)C)NC(=O)[C@H](CCCNC(=N)N)NC(=O)[C@H](CCC(N)=O)NC(=O)[C@@H](NC(=O)[C@H](C)NC(=O)[C@@H]1CSSC[C@H](NC(=O)[C@H](CCCCN)NC(=O)COCCOCCNC(=O)CC[C@H](NC(=O)CCCCCCCCCCCCCCCCCCC(=O)O)C(=O)O)C(=O)N[C@@H](CC(N)=O)C(=O)N[C@@H]([C@@H](C)O)C(=O)N[C@@H](C)C(=O)N[C@@H]([C@@H](C)O)C(=O)N1)[C@@H](C)O)C(=O)N1CCC[C@H]1C(=O)N[C@@H](CO)C(=O)N[C@@H](CO)C(=O)N[C@H](C(=O)N[C@@H](CC(N)=O)C(=O)N[C@H](C(=O)NCC(=O)N[C@@H](CO)C(=O)N[C@@H](Cc1c[nH]cn1)C(=O)N[C@H](C(=O)N[C@@H](Cc1ccc(O)cc1)C(N)=O)[C@@H](C)O)C(C)C)[C@@H](C)O [Peptide 18] ({C20 diacid-γGlu-AEEA}-KCNTATCATQRLANFLRHSSPNFGAIPSSTNVGSHTY-NH2; disulfide 2-7; N-terminus assumed)	≥ 200 µM	≥ 200 µM	≥ 200 µM	≥ 200 µM	≥ 200 µM	≥ 200 µM	≥ 200 µM	19	–	–
CC[C@H](C)[C@H](NC(=O)[C@H](C)NC(=O)CNC(=O)[C@H](Cc1ccccc1)NC(=O)[C@H](CC(N)=O)NC(=O)[C@@H]1CCCN1C(=O)[C@H](CO)NC(=O)[C@H](CO)NC(=O)[C@H](Cc1c[nH]cn1)NC(=O)[C@H](CCCNC(=N)N)NC(=O)[C@H](CC(C)C)NC(=O)[C@H](Cc1ccccc1)NC(=O)[C@H](CCC(=O)O)NC(=O)[C@H](C)NC(=O)[C@H](CC(C)C)NC(=O)[C@H](CCCNC(=N)N)NC(=O)[C@H](CCC(N)=O)NC(=O)[C@@H](NC(=O)[C@H](C)NC(=O)[C@@H]1CSSC[C@H](NC(=O)[C@@H](N)CCCCNC(=O)CC[C@H](NC(=O)CCCCCCCCCCCCCCCCCCC(=O)O)C(=O)O)C(=O)N[C@@H](CC(N)=O)C(=O)N[C@@H]([C@@H](C)O)C(=O)N[C@@H](C)C(=O)N[C@@H]([C@@H](C)O)C(=O)N1)[C@@H](C)O)C(=O)N1CCC[C@H]1C(=O)N[C@@H](CO)C(=O)N[C@@H](CO)C(=O)N[C@H](C(=O)N[C@@H](CC(N)=O)C(=O)N[C@H](C(=O)NCC(=O)N[C@@H](CO)C(=O)N[C@@H](CCCNC(=N)N)C(=O)N[C@H](C(=O)N[C@@H](Cc1ccc(O)cc1)C(N)=O)[C@@H](C)O)C(C)C)[C@@H](C)O [Peptide 20] (H-K([γGlu-C20 diacid])CNTATCATQRLAEFLRHSSPNFGAIPSSTNVGSRTY-NH2; disulfide 2-7)	≥ 200 µM	≥ 200 µM	≥ 200 µM	183 µM (≈ 812 µg/mL)	109 µM (≈ 484 µg/mL)	≥ 200 µM	≥ 200 µM	31	–	–
